In ChEMBL document CHEMBL5360672, “Identification of Novel Dual-Target Estrogen Receptor α Degraders with Tubulin Inhibitory Activity for the Treatment of Endocrine-Resistant Breast Cancer” (J Med Chem, 2023):

Molecular target: T1, Estrogen receptor (Homo sapiens) (UniProt P03372)
T1 sequence (whole entry): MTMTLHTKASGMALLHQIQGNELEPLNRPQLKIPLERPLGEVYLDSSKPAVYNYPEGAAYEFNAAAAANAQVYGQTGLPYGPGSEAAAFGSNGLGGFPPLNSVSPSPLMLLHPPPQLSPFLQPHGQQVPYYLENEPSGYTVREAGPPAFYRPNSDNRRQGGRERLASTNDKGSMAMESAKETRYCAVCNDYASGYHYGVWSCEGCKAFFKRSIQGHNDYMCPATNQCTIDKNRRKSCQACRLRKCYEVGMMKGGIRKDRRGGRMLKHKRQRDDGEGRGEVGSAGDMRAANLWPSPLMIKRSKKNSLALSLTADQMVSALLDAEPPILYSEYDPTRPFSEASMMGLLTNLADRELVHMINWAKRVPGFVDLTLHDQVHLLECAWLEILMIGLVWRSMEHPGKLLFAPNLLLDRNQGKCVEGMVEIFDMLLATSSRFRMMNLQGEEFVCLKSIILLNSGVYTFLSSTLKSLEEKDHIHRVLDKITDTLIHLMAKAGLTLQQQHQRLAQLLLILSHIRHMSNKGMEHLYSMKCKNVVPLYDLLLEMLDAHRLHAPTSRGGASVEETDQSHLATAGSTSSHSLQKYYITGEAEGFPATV
Assay: Binding affinity to human ERalpha assessed as relative binding affinity incubated under vibration for 1 min followed by 2 hrs incubation under dark condition by fluorescence polarization assay relative to estradiol
Conditions: time 121.0 min

| SMILES | RBA [%] |
| --- | --- |
| N#C[Se]CCCC(=O)Nc1ccc(C2=C(c3ccc(O)cc3)C3CC(S(=O)(=O)Oc4ccccc4)C2O3)cc1 (configuration not stated) | 1.05 |
| N#C[Se]CCCCCC(=O)Nc1ccc(C2=C(c3ccc(O)cc3)C3CC(S(=O)(=O)Oc4cccc(F)c4)C2O3)cc1 (configuration not stated) | 3.31 |
| Cc1ccc(OS(=O)(=O)C2CC3OC2C(c2ccc(NC(=O)CCCCC[Se]C#N)cc2)=C3c2ccc(O)cc2)cc1 (configuration not stated) | 3.31 |

Other lines, results leading:

| RBA [%] | SMILES |
| --- | --- |
| 2.21 | N#C[Se]CCCCCC(=O)Nc1ccc(C2=C(c3ccc(O)cc3)C3CC(S(=O)(=O)Oc4ccccc4Br)C2O3)cc1 (configuration not stated) |
| 23.1 | N#C[Se]CCCCCC(=O)Nc1ccc(C2=C(c3ccc(O)cc3)C3CC(S(=O)(=O)Oc4ccccc4C(F)(F)F)C2O3)cc1 (configuration not stated) |
| 8.21 | N#C[Se]CCCCCC(=O)Nc1ccc(C2=C(c3ccc(O)cc3)C3CC(S(=O)(=O)Oc4ccccc4Cl)C2O3)cc1 (configuration not stated) |

Molecular target: Estrogen receptor beta (Homo sapiens) (UniProt Q92731)
Assay: Binding affinity to human ERbeta assessed as relative binding affinity incubated under vibration for 1 min followed by 2 hrs incubation under dark condition by fluorescence polarization assay relative to estradiol
Conditions: time 121.0 min

Chain of Estrogen receptor beta (Homo sapiens) (Q92731 whole entry): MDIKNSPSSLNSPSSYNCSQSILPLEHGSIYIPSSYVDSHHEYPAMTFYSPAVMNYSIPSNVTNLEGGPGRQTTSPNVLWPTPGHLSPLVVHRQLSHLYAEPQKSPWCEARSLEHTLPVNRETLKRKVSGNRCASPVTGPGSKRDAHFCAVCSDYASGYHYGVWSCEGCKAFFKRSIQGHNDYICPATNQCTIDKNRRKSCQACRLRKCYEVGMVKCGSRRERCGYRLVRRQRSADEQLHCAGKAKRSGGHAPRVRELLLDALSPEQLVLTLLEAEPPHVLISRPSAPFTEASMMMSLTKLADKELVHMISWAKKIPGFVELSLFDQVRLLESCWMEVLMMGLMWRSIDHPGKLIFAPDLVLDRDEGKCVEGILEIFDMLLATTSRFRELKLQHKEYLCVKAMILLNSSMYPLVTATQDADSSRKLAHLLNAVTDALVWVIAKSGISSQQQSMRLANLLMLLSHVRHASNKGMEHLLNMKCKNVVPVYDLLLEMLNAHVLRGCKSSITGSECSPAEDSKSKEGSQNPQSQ

| SMILES | RBA [%] |
| --- | --- |
| N#C[Se]CCCC(=O)Nc1ccc(C2=C(c3ccc(O)cc3)C3CC(S(=O)(=O)Oc4ccccc4)C2O3)cc1 (configuration not stated) | 1.7 |
| N#C[Se]CCCCCC(=O)Nc1ccc(C2=C(c3ccc(O)cc3)C3CC(S(=O)(=O)Oc4cccc(F)c4)C2O3)cc1 (configuration not stated) | 0.53 |
| Cc1ccc(OS(=O)(=O)C2CC3OC2C(c2ccc(NC(=O)CCCCC[Se]C#N)cc2)=C3c2ccc(O)cc2)cc1 (configuration not stated) | 2.63 |

Next, values leading:

| RBA [%] | SMILES |
| --- | --- |
| 0.18 | N#C[Se]CCCCCC(=O)Nc1ccc(C2=C(c3ccc(O)cc3)C3CC(S(=O)(=O)Oc4ccccc4Br)C2O3)cc1 (configuration not stated) |
| 5.79 | N#C[Se]CCCCCC(=O)Nc1ccc(C2=C(c3ccc(O)cc3)C3CC(S(=O)(=O)Oc4ccccc4C(F)(F)F)C2O3)cc1 (configuration not stated) |
| 1.52 | N#C[Se]CCCCCC(=O)Nc1ccc(C2=C(c3ccc(O)cc3)C3CC(S(=O)(=O)Oc4ccccc4Cl)C2O3)cc1 (configuration not stated) |

Species on record: Homo sapiens
Assay: Selectivity ratio of relative binding affinity for human ERalpha to relative binding affinity to human ERbeta
Conditions: not given

| SMILES | Selectivity ratio |
| --- | --- |
| N#C[Se]CCCC(=O)Nc1ccc(C2=C(c3ccc(O)cc3)C3CC(S(=O)(=O)Oc4ccccc4)C2O3)cc1 (configuration not stated) | 0.62 |
| N#C[Se]CCCCCC(=O)Nc1ccc(C2=C(c3ccc(O)cc3)C3CC(S(=O)(=O)Oc4cccc(F)c4)C2O3)cc1 (configuration not stated) | 6.25 |
| Cc1ccc(OS(=O)(=O)C2CC3OC2C(c2ccc(NC(=O)CCCCC[Se]C#N)cc2)=C3c2ccc(O)cc2)cc1 (configuration not stated) | 1.26 |

Further lines, results first:

| Selectivity ratio | SMILES |
| --- | --- |
| 12.3 | N#C[Se]CCCCCC(=O)Nc1ccc(C2=C(c3ccc(O)cc3)C3CC(S(=O)(=O)Oc4ccccc4Br)C2O3)cc1 (configuration not stated) |
| 10.6 | N#C[Se]CCCCCC(=O)Nc1ccc(C2=C(c3ccc(O)cc3)C3CC(S(=O)(=O)Oc4ccccc4C(F)(F)F)C2O3)cc1 (configuration not stated) |
| 5.4 | N#C[Se]CCCCCC(=O)Nc1ccc(C2=C(c3ccc(O)cc3)C3CC(S(=O)(=O)Oc4ccccc4Cl)C2O3)cc1 (configuration not stated) |

System: MCF7
Assay: Antiproliferative activity against ERalpha positive human MCF7 cells assessed as inhibition of cell proliferation incubated for 72 hrs by CCK8 assay
Type: functional, cell-based
Conditions: MCF7, 72 h

| SMILES | IC50 [nM] |
| --- | --- |
| N#C[Se]CCCC(=O)Nc1ccc(C2=C(c3ccc(O)cc3)C3CC(S(=O)(=O)Oc4ccccc4)C2O3)cc1 (configuration not stated) | 2020 |
| N#C[Se]CCCCCC(=O)Nc1ccc(C2=C(c3ccc(O)cc3)C3CC(S(=O)(=O)Oc4cccc(F)c4)C2O3)cc1 (configuration not stated) | 780 |
| Cc1ccc(OS(=O)(=O)C2CC3OC2C(c2ccc(NC(=O)CCCCC[Se]C#N)cc2)=C3c2ccc(O)cc2)cc1 (configuration not stated) | 2750 |

More lines, now with the values ahead:

| IC50 [nM] | SMILES |
| --- | --- |
| 860 | N#C[Se]CCCCCC(=O)Nc1ccc(C2=C(c3ccc(O)cc3)C3CC(S(=O)(=O)Oc4ccccc4Br)C2O3)cc1 (configuration not stated) |
| 350 | N#C[Se]CCCCCC(=O)Nc1ccc(C2=C(c3ccc(O)cc3)C3CC(S(=O)(=O)Oc4ccccc4C(F)(F)F)C2O3)cc1 (configuration not stated) |
| 490 | N#C[Se]CCCCCC(=O)Nc1ccc(C2=C(c3ccc(O)cc3)C3CC(S(=O)(=O)Oc4ccccc4Cl)C2O3)cc1 (configuration not stated) |

System: T47D
Assay: Antiproliferative activity against ERalpha positive human T47D cells assessed as inhibition of cell proliferation incubated for 72 hrs by CCK8 assay
Type: functional, cell-based
Conditions: not given

| SMILES | IC50 [nM] |
| --- | --- |
| N#C[Se]CCCC(=O)Nc1ccc(C2=C(c3ccc(O)cc3)C3CC(S(=O)(=O)Oc4ccccc4)C2O3)cc1 (configuration not stated) | 18100 |
| N#C[Se]CCCCCC(=O)Nc1ccc(C2=C(c3ccc(O)cc3)C3CC(S(=O)(=O)Oc4cccc(F)c4)C2O3)cc1 (configuration not stated) | 2050 |
| Cc1ccc(OS(=O)(=O)C2CC3OC2C(c2ccc(NC(=O)CCCCC[Se]C#N)cc2)=C3c2ccc(O)cc2)cc1 (configuration not stated) | 3130 |

Now from value to compound:

| IC50 [nM] | SMILES |
| --- | --- |
| 1710 | N#C[Se]CCCCCC(=O)Nc1ccc(C2=C(c3ccc(O)cc3)C3CC(S(=O)(=O)Oc4ccccc4Br)C2O3)cc1 (configuration not stated) |
| 1770 | N#C[Se]CCCCCC(=O)Nc1ccc(C2=C(c3ccc(O)cc3)C3CC(S(=O)(=O)Oc4ccccc4C(F)(F)F)C2O3)cc1 (configuration not stated) |
| 2550 | N#C[Se]CCCCCC(=O)Nc1ccc(C2=C(c3ccc(O)cc3)C3CC(S(=O)(=O)Oc4ccccc4Cl)C2O3)cc1 (configuration not stated) |

System: not listed separately
Assay: Cytotoxicity against human MCF-10A cells assessed as inhibition of cell proliferation incubated for 72 hrs by CCK8 assay
Type: toxicity, cell-based
Conditions: not given

| SMILES | IC50 at 72 h [nM] |
| --- | --- |
| N#C[Se]CCCCCC(=O)Nc1ccc(C2=C(c3ccc(O)cc3)C3CC(S(=O)(=O)Oc4ccccc4Br)C2O3)cc1 (configuration not stated) | 7550 |
| N#C[Se]CCCC(=O)Nc1ccc(C2=C(c3ccc(O)cc3)C3CC(S(=O)(=O)Oc4ccccc4)C2O3)cc1 (configuration not stated) | 59900 |
| N#C[Se]CCCCCC(=O)Nc1ccc(C2=C(c3ccc(O)cc3)C3CC(S(=O)(=O)Oc4cccc(F)c4)C2O3)cc1 (configuration not stated) | 17500 |
| N#C[Se]CCCCCC(=O)Nc1ccc(C2=C(c3ccc(O)cc3)C3CC(S(=O)(=O)Oc4ccccc4C(F)(F)F)C2O3)cc1 (configuration not stated) | 12900 |
| N#C[Se]CCCCCC(=O)Nc1ccc(C2=C(c3ccc(O)cc3)C3CC(S(=O)(=O)Oc4ccccc4Cl)C2O3)cc1 (configuration not stated) | 10100 |
| Cc1ccc(OS(=O)(=O)C2CC3OC2C(c2ccc(NC(=O)CCCCC[Se]C#N)cc2)=C3c2ccc(O)cc2)cc1 (configuration not stated) | 41200 |

System: not listed separately
Assay: Selectivity index, ratio of IC50 for cytotoxicity against human MCF-10A cells to IC50 for antiproliferative activity against human MCF7 cells
Type: toxicity, cell-based
Conditions: MCF-10A cells and MCF7 cells, read-out: Ratio IC50

| SMILES | selectivity ratio |
| --- | --- |
| N#C[Se]CCCCCC(=O)Nc1ccc(C2=C(c3ccc(O)cc3)C3CC(S(=O)(=O)Oc4ccccc4Br)C2O3)cc1 (configuration not stated) | 8.78 |
| N#C[Se]CCCC(=O)Nc1ccc(C2=C(c3ccc(O)cc3)C3CC(S(=O)(=O)Oc4ccccc4)C2O3)cc1 (configuration not stated) | 29.7 |
| N#C[Se]CCCCCC(=O)Nc1ccc(C2=C(c3ccc(O)cc3)C3CC(S(=O)(=O)Oc4cccc(F)c4)C2O3)cc1 (configuration not stated) | 22.4 |
| N#C[Se]CCCCCC(=O)Nc1ccc(C2=C(c3ccc(O)cc3)C3CC(S(=O)(=O)Oc4ccccc4C(F)(F)F)C2O3)cc1 (configuration not stated) | 36.9 |
| N#C[Se]CCCCCC(=O)Nc1ccc(C2=C(c3ccc(O)cc3)C3CC(S(=O)(=O)Oc4ccccc4Cl)C2O3)cc1 (configuration not stated) | 20.7 |
| Cc1ccc(OS(=O)(=O)C2CC3OC2C(c2ccc(NC(=O)CCCCC[Se]C#N)cc2)=C3c2ccc(O)cc2)cc1 (configuration not stated) | 15 |
